# “And” between values parts separate entries of the source, which are not always exact repeats. Equal entries are not always repeated. Where two headings read alike, the source gives them in different places.
# Key:
# [1] = Accumulation of Compound 1 in skin punch biopsies of HS patients; type: in vivo, human
# Protocol: The accumulation of Compound 1 in the skin of human HS patients in the clinical study described in Example 1 was determined. […] FIG. 6 is a graph showing the concentrations of Compound 1 found in the biopsied tissues in subjects grouped according to their clinical response to Compound 1 therapy. The mean skin concentration following 16 weeks of treatment with Compound 1 was 7130 ng/mg, which is equivalent to 16.1 mM.
# HSP-90 = conditions: read-out: IC50 for inhibition of HSP-90; cited from earlier work
# [2] = tested on: subjects with moderate to severe hidradenitis suppurativa; test: Placebo controlled clinical study of Compound 1 in hidradenitis suppurativa patients; type: in vivo, human
# Protocol: A placebo controlled clinical study was conducted to assess the efficacy of Compound 1 in HS patients. The study design is summarized below.
# Fifteen patients were entered into the study and randomly assigned to the Compound 1 arm (10 patients) or the placebo arm (5 patients). The study was open to male or female subjects aged 18 years or older with hidradenitis suppurativa with minimum 5 inflammatory nodules in at least 2 distinct anatomic areas. The study was conducted in Denmark.
# The study duration was approximately 24 weeks, including a 4-week screening phase, a 16-week treatment phase, and a 4-week observational follow-up phase to assess for hidradenitis suppurativa relapse and flare.
# The primary objective of the study was to evaluate the efficacy of Compound 1 in subjects with moderate to severe hidradenitis suppurativa. The secondary objectives were to (1) evaluate the efficacy of Compound 1 on other clinical disease activity parameters in subject with moderate to severe hidradenitis suppurativa and (2) to evaluate the safety of Compound 1 in subjects with moderate to severe hidradenitis suppurativa.
# The primary efficacy endpoint of the study was the percentage of subjects achieving Hidradenitis Suppurativa Clinical Response 50 (HiSCR-50) score at Week 16. The secondary efficacy endpoints were: • (1) the percentage of subjects with Hidradenitis Suppurativa Physician's Global Assessment (HS-PGA) scores of clear or minimal at Weeks 2, 4, 8, 12, 14, 16, and 20; • (2) the percentage of subjects achieving HiSCR-50, HiSCR-75, and HISCR-90 at Weeks 2, 4, 8, 12, 14, 16, and 20; • (3) changes from baseline in the Dermatology Life Quality Index (DLQI) total score at Weeks 4, 8, 12, 16, and 20; • (4) changes from baseline in the Pain Numerical Ranging score at Weeks 4, 8, 12, 16, and 20; • (5) change and percent change from Baseline in lesion counts (abscess count, inflammatory nodule count, AN count, and draining tunnel count); • (6) change from baseline in skin biomarkers at Week 16; • (7) change from baseline in blood biomarkers at Weeks 4, 8, 12, and 16.
# This was a 16-week treatment, randomized, double-blind, proof-of-concept study designed to assess the safety and efficacy of Compound 1 compared to placebo for use in future efficacy Phase 2 trials.
# Eligible subjects completed an up-to 4-week screening phase and sequentially be randomized 2:1 to one of two cohorts, treatment cohort (n=10) or placebo-control cohort (n=5), in a 16-week treatment phase followed by a 4-week observational follow-up phase. In the 16-week treatment phase, subjects randomized to the treatment group receive 250 mg Compound 1 free base in the form of a tablet administered orally once daily. The 250 mg dose was selected based on the results of an earlier oncology trial conducted with doses in excess of 1000 mg/day as a safe minimal dose from which to conduct dose escalation if required. Subjects randomized to the placebo-control group receive placebo treatment once daily (microcrystalline cellulose, mannitol, crospovidone, Opadry II red, magnesium stearate, colloidal silicon dioxide).
# HiSCR, HS-PGA, Pain-NRS, and DLQI were performed to assess efficacy. Safety was assessed with the vital signs, physical examination, clinical laboratory tests, ECG, and collection of AEs.
# [3] = Plasma pharmacokinetics after a single oral dose in healthy male subjects; type: in vivo, human; conditions: single oral dose of 250 mg; for Cmax: male, human, po, 250 mg
# Protocol: The skin accumulation found in this study was compared to plasma levels of Compound 1 determined in a previous study in healthy human volunteers. Six healthy male subjects were given a single oral dose of 250 mg Compound 1, and plasma samples were collected pre-dose and at 0.25, 0.5, 0.75, 1, 1.5, 2, 2.5, 3, 4, 6, 8, 10, 12, 18, 24, 30, 36, 48, 72 and 96 hours after dosing.
# [4] = following 16 weeks of treatment, 250 mg orally once daily, skin punch biopsies
# [5] = individual healthy male subjects
structure (smiles),measurement,setting,value
CN(C)c1cc2c(cc1Sc1nc3c(N)nccc3n1CCNCC(C)(C)C)OCO2 [Compound 1],accumulation in the skin relative to plasma,"[1]; daily oral dosing at 250 mg, skin versus plasma of healthy volunteers","approximately 100,000 fold"
same,mean skin concentration,[1]; [4],7130 ng/mg
same,mean skin concentration (molar equivalent),[1]; [4],16.1 mM
same,likelihood of achieving HiSCR50,"[2]; beginning at 12 weeks and continuing to 16 weeks, 250 mg orally once daily, compared to control",substantially more likely to achieve HiSCR50
same,subjects achieving HiSCR75,"[2]; by 14 weeks, 250 mg orally once daily, no subjects in the control",50%
same,subjects achieving HiSCR90,"[2]; by 16 weeks, 250 mg orally once daily, no subjects in the control",30%
same,IHS4 at baseline,"[2]; individual subjects of the Compound 1 arm, before treatment",17 and 43 and 14 (2×) and 10 and 6 and 20 (2×) and 28 and 11
same,IHS4 at week 16,"[2]; individual subjects of the Compound 1 arm, 250 mg orally once daily for 16 weeks",4 (2×) and 22 and 3 and 7 (2×) and 21 and 6 and 10 and 2
same,decrease in abscess/nodule (AN) count relative to baseline,"[2]; week 16, 250 mg orally once daily, compared to control",substantially greater decrease in AN count
same,average decrease in HS-PGA compared to baseline,"[2]; week 16, 250 mg orally once daily, control arm showed no change",0.8
same,subjects showing a decrease in IHS4 score,"[2]; week 16 versus baseline, Compound 1 arm (n=10)",Nine of the ten
same,Cmax,"[3]; read-out: Cmax, range over six subjects",19.4 to 24.9 ng/mL
same,Cmax,"[3]; six subjects, read-out: Cmax, median",20.3 ng/mL
same,Cmax,"[3]; six subjects, read-out: Cmax, median (molar)",46 nM
same,AUClast,[3]; [5],51.64 ng·h/mL and 70.13 ng·h/mL and 36.82 ng·h/mL and 25.64 ng·h/mL and 45.08 ng·h/mL and 54.08 ng·h/mL
same,AUC∞,[3]; [5],51.64 ng·h/mL and 85.79 ng·h/mL and 36.82 ng·h/mL and 25.64 ng·h/mL and 45.08 ng·h/mL and 54.08 ng·h/mL

# Source: patent US20250288562A1, “Methods and Compositions for Treating Hidradenitis Suppurativa” (Regranion, LLC, priority 2022, published 2025)
